Bounds are passed on as bounds.

The source of these data is BindingDB's records for doi:10.7270/Q2SF2TM0 (The Scripps Research Institute Molecular Screening Center, 2009).

Sequence of Beta-lactamase (Q79MP6 whole entry): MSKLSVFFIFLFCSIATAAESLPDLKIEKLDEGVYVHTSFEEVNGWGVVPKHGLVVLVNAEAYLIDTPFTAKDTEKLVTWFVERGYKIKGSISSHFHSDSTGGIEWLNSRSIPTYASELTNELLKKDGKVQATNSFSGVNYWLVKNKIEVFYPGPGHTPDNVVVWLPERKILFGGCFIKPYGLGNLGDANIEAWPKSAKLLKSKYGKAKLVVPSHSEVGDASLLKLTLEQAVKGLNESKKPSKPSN

This test concerns the target Beta-lactamase (Pseudomonas aeruginosa, UniProt Q79MP6). As to the kind of experiment: inhibition of IMP-1 beta-lactamase activity – biochemical, epi-absorbance, selectivity assay for VIM-2 inhibitor project, dose response (AID 1920).
Take `COc1ccc(OC)c(C2C(C(=O)c3ccco3)C(=O)C(=O)N2Cc2cccnc2)c1` (configuration not stated) [2-(2,5-dimethoxyphenyl)-3-(furan-2-carbonyl)-4-hydroxy-1-(pyridin-3-ylmethyl)-2H-pyrrol-5-one]: the IC50 is > 59.6 µM.
As for `O=C1C(=O)N(Cc2cccnc2)C(c2ccccn2)C1C(=O)c1cccs1` (configuration not stated) [3-hydroxy-5-(2-pyridinyl)-1-(3-pyridinylmethyl)-4-(2-thienylcarbonyl)-1,5-dihydro-2H-pyrrol-2-one], the figure is > 59.6 µM.
For `COc1ccc(C(=O)C2C(=O)C(=O)N(Cc3ccco3)C2c2cc(OC)ccc2OC)cc1` (configuration not stated) [(4E)-5-(2,5-dimethoxyphenyl)-1-(2-furanylmethyl)-4-[hydroxy-(4-methoxyphenyl)methylidene]pyrrolidine-2,3-dione] the value was > 59.6 µM; for `O=C1C(=O)N(Cc2cccnc2)C(c2ccccn2)C1C(=O)c1ccc(F)cc1` (configuration not stated) [(4Z)-4-[(4-fluorophenyl)-hydroxy-methylene]-5-(2-pyridyl)-1-(3-pyridylmethyl)pyrrolidine-2,3-quinone], > 59.6 µM.
For `O=C1C(=O)N(Cc2cccnc2)C(c2ccccn2)C1C(=O)c1ccccc1` (configuration not stated) [(4Z)-4-[hydroxy(phenyl)methylene]-5-(2-pyridyl)-1-(3-pyridylmethyl)pyrrolidine-2,3-quinone] the value was > 59.6 µM; for `COc1cc(OC)c(OC)cc1C=NNC(=O)Cc1c(C)[nH][nH]c1=O` [MLS000555854], > 59.6 µM; for `COc1ccc(OC)c(C=NNC(=O)Cc2c(C)[nH][nH]c2=O)c1` [SMR000147372], > 59.6 µM.

Broadly, the IC50 is the point on the concentration scale where inhibition reaches its midpoint. Read a high IC50 as weaker potency in that assay.
